Results from patent US20230159445A1, “STAT INHIBITORY COMPOUNDS AND COMPOSITIONS” (JANPIX LIMITED, priority 2020, published 2023).
Read-outs that look alike come from different tables or passages of the source.

System: MV4-11 cells
Experiment: MV4-11 Cell Cytotoxicity Assay (CellTiter-Blue, 72 h)
Assay type: cell-based, human
Procedure: In some embodiments, the potency of the STAT5 inhibitors are evaluated by an in vitro assay such as MV4-11 Cell Cytotoxicity Assay. […] 10,000 cells were plated per well in 96-well flat-bottom sterile culture plates with low-evaporation lids. After 24 h, inhibitors and a vehicle control (0.5% DMSO) were added and the cells were incubated for 72 h at 37° C. in 5% CO2. Inhibitors were examined in triplicate at a maximal concentration of 50 μM, followed by 1:2 dilutions in subsequent wells (25, 12.5, 6.25, 3.125, 1.5625, 0.78125, 0.390625, 0.195313 and 0.097656 μM). After 72 h, the wells were treated with CellTiter-Blue® (20 μL/well), and the plates were incubated using standard cell culture conditions for 1 hour. Fluorescence was measured at 560/590 nm.

[1] = Homo sapiens, MV4-11, MV-4-11 cells
[2] = Homo sapiens, MV4-11 cells, 72 h, CellTiter-Blue, read-out: IC50- MV-4-11

Structure (SMILES)	IC50 [1] [nM]	IC50 [2] [nM]	also measured
COc1cc(C(=O)O)ccc1N(Cc1cc(C2CC2)cc(C(C)(C)C)c1)C(=O)CN(Cc1cncc(C(F)(F)F)c1)S(=O)(=O)c1c(F)c(F)c(F)c(F)c1F [Compound 1131, 4-(N-(3-(tert-butyl)-5-cyclopropylbenzyl)-2-(N-((5-(trifluoromethyl)pyridin-3-yl)methyl)-(2,3,4,5,6-pentafluoro-phenyl)sulfonamido)acetamido)-3-methoxybenzoic acid]	316 to 1000		
CC(C)(C)c1cc(CN(C(=O)CN(Cc2cccc(C(F)(F)F)c2)S(=O)(=O)c2c(F)c(F)c(F)c(F)c2F)c2ccc(C(=O)O)cc2OC2CC2)cc(C2CC2)c1 [Compound 1135, 4-(N-(3-(tert-butyl)-5-cyclopropylbenzyl)-2-(N-(3-(trifluoromethyl)benzyl)-(2,3,4,5,6-pentafluoro-phenyl)sulfonamido)acetamido)-3-cyclopropoxybenzoic acid]	316 to 1000		
O=C(O)c1ccc(N(Cc2cccnn2)C(=O)CN(Cc2ccccc2C(F)(F)F)S(=O)(=O)c2c(F)c(F)c(F)c(F)c2F)c(OC2CC2)c1 [Compound 1138, 3-cyclopropoxy-4-(2-(N-(2-(trifluoromethyl)benzyl)-(2,3,4,5,6-pentafluoro-phenyl)sulfonamido)-N-(pyridazin-3-ylmethyl)acetamido) benzoic acid]	3160 to 100000		
CC(C)(C)c1cc(CN(C(=O)CN(Cc2cccc(C#N)c2)S(=O)(=O)c2c(F)c(F)c(F)c(F)c2F)c2ccc(C(=O)O)cc2OC2CC2)cc(C2CC2)c1 [Compound 1139, 4-(N-(3-(tert-butyl)-5-cyclopropylbenzyl)-2-(N-(3-cyanobenzyl)-(2,3,4,5,6-pentafluorophenyl)sulfon-amido)acetamido)-3-cyclopropoxybenzoic acid]	316 to 1000		
CC(C)(C)c1cc(CN(C(=O)CN(Cc2ccc(C#N)cc2)S(=O)(=O)c2c(F)c(F)c(F)c(F)c2F)c2ccc(C(=O)O)cc2OC2CC2)cc(C2CC2)c1 [Compound 1140, 4-(N-(3-(tert-butyl)-5-cyclopropylbenzyl)-2-(N-(4-cyanobenzyl)-(2,3,4,5,6-pentafluorophenyl)sulfon-amido)acetamido)-3-cyclopropoxybenzoic acid]	316 to 1000		
COc1cc(C(=O)O)ccc1N(Cc1cccc(C(C)(C)C)c1)C(=O)CN(C12CC(C1)C2)S(=O)(=O)c1c(F)c(F)c(F)c(F)c1F [Compound 1144, 4-(2-(N-(bicyclo[1.1.1]pentan-1-yl)-(2,3,4,5,6-pentafluorophenyl)sulfon-amido)-N-(3-(tert-butyl)benzyl)acetamido)-3-methoxybenzoic acid]	316 to 1000		
CC(C)(C)c1cc(CN(C(=O)CN(Cc2ccccc2F)S(=O)(=O)c2c(F)c(F)c(F)c(F)c2F)c2ccc(C#N)c(F)c2)cc(C2CC2)c1 [Compound 1151, N-(3-(tert-butyl)-5-cyclopropylbenzyl)-N-(4-cyano-3-fluorophenyl)-2-(N-(2-fluorobenzyl)-(2,3,4,5,6-pentafluoro-phenyl)sulfonamido) acetamide]	3160 to 100000		
COc1cc(C(=O)O)ccc1N(Cc1nc2ccccc2n1C)C(=O)CN(Cc1cnccc1C(F)(F)F)S(=O)(=O)c1c(F)c(F)c(F)c(F)c1F [Compound 1158, 3-methoxy-4-(N-((1-methyl-1H-benzo[d]imidazol-2-yl)methyl)-2-(N-((4-(trifluoromethyl)pyridin-3-yl)methyl)-(2,3,4,5,6-pentafluoro-phenyl)sulfonamido)acetamido)benzoic acid]	3160 to 100000		
COc1cc(C(=O)O)ccc1N(Cc1cc(C2CC2)cc(C(C)(C)C)c1)C(=O)CN(Cc1ccc(Cl)cc1F)S(=O)(=O)c1c(F)c(F)c(F)c(F)c1F [Compound 1175, 4-(N-(3-(tert-butyl)-5-cyclopropylbenzyl)-2-(N-(4-chloro-2-fluorobenzyl)-(2,3,4,5,6-pentafluorophenyl)sulfon-amido)acetamido)-3-methoxybenzoic acid]	316 to 1000		
COc1cc(C(=O)O)ccc1N(Cc1cc(C2CC2)cc(C2CC2)c1)C(=O)CN(Cc1ncc(F)cc1Cl)S(=O)(=O)c1c(F)c(F)c(F)c(F)c1F [Compound 1176, 4-(2-(N-((3-chloro-5-fluoropyridin-2-yl)methyl)-(2,3,4,5,6-pentafluorophenyl)sulfon-amido)-N-(3,5-dicyclopropylbenzyl)acetamido)-3-methoxybenzoic acid]			IC50 (MV-4-11 cells): 0.01 to 316 nM
Cc1cc(C(=O)O)cc(C)c1N(Cc1cc(C2CC2)cc(C(C)(C)C)c1)C(=O)CN(Cc1cnccc1C(F)(F)F)S(=O)(=O)c1c(F)c(F)c(F)c(F)c1F [Compound 1181, 4-(N-(3-(tert-butyl)-5-cyclopropylbenzyl)-2-(N-((4-(trifluoromethyl)pyridin-3-yl)methyl)-(2,3,4,5,6-pentafluoro-phenyl)sulfonamido)acetamido)-3,5-dimethylbenzoic acid]	316 to 1000		
Cc1cc(C(=O)O)cc(C)c1N(Cc1cc(C2CC2)cc(C(C)(C)C)c1)C(=O)CN(Cc1ccc(F)cc1Cl)S(=O)(=O)c1c(F)c(F)c(F)c(F)c1F [Compound 1187, 4-(N-(3-(tert-butyl)-5-cyclopropylbenzyl)-2-(N-(2-chloro-4-fluorobenzyl)-(2,3,4,5,6-pentafluorophenyl)sulfon-amido)acetamido)-3,5-dimethylbenzoic acid]	316 to 1000		
Cc1cc(C(=O)O)cc(C)c1N(Cc1cc(C2CC2)cc(C2CC2)c1)C(=O)CN(Cc1cnccc1C(F)(F)F)S(=O)(=O)c1c(F)c(F)c(F)c(F)c1F [Compound 1202, 4-(N-(3,5-dicyclopropylbenzyl)-2-(N-((4-(trifluoromethyl)pyridin-3-yl)methyl)-(2,3,4,5,6-pentafluoro-phenyl)sulfonamido)acetamido)-3,5-dimethylbenzoic acid]	316 to 1000		
Cc1cc(C(=O)O)cc(C)c1N(Cc1cc(C2CC2)cc(N2CCCC2)c1)C(=O)CN(Cc1c(F)cc(F)cc1F)S(=O)(=O)c1c(F)c(F)c(F)c(F)c1F [Compound 1205, 4-(N-(3-cyclopropyl-5-(pyrrolidin-1-yl)benzyl)-2-(N-(2,4,6-trifluorobenzyl)-(2,3,4,5,6-pentafluoro-phenyl)sulfonamido)acetamido)-3,5-dimethylbenzoic acid]	316 to 1000		
Cc1cc(C(=O)O)cc(C)c1N(Cc1cc(C2CC2)cc(N2CCCC2)c1)C(=O)CN(Cc1ccc(F)cc1Cl)S(=O)(=O)c1c(F)c(F)c(F)c(F)c1F [Compound 1206, 4-(2-(N-(2-chloro-4-fluorobenzyl)-(2,3,4,5,6-pentafluorophenyl)sulfon-amido)-N-(3-cyclopropyl-5-(pyrrolidin-1-yl)benzyl)acetamido)-3,5-dimethylbenzoic acid]	316 to 1000		
CC(C)(C)c1cc(CN(C(=O)CN(Cc2ccc(F)cc2Cl)S(=O)(=O)c2c(F)c(F)c(F)c(F)c2F)c2ccc(C(=O)O)c(C(F)(F)F)c2)cc(C2CC2)c1 [Compound 1229, 4-(N-(3-(tert-butyl)-5-cyclopropylbenzyl)-2-(N-(2-chloro-4-fluorobenzyl)-(2,3,4,5,6-pentafluorophenyl)sulfon-amido)acetamido)-2-(trifluoromethyl) benzoic acid]	1000 to 3160		
CC(C)(C)c1cc(N(C(=O)CN(Cc2ccc(Cl)cc2)S(=O)(=O)c2c(F)c(F)c(F)c(F)c2F)c2ccc(C(=O)O)cc2)cc(C(C)(C)C)c1 [Compound 2002, 4-(2-(N-(4-chlorobenzyl)-(2,3,4,5,6-pentafluorophenyl)sulfon-amido)-N-(3,5-di-tert-butylphenyl)acetamido)ben-zoic acid]		316 to 1000	
CC(C)(C)c1cc(CN(C(=O)CN(Cc2ccccc2)S(=O)(=O)c2c(F)c(F)c(F)c(F)c2F)c2ccc(C(=O)O)c(O)c2)cc(C(C)(C)C)c1 [Compound 2003, 4-(2-(N-benzyl-(2,3,4,5,6-pentafluorophenyl)sulfon-amido)-N-(3,5-di-tert-butylbenzyl)acetamido)-2-hydroxybenzoic acid]		1000 to 3160	
CC(C)(C)c1cc(C(=O)N(CCN(Cc2ccc(Cl)cc2)S(=O)(=O)c2c(F)c(F)c(F)c(F)c2F)c2ccc(C(=O)O)cc2)cc(C(C)(C)C)c1 [Compound 2005, 4-(3,5-di-tert-butyl-N-(2-(N-(4-chlorobenzyl)-(2,3,4,5,6-pentafluorophenyl)sulfon-amido)ethyl)benzamido)ben-zoic acid]		316 to 1000	
O=C(O)c1ccc(N(Cc2ccc3c(c2)OCCO3)C(=O)CN(Cc2ccc(Cl)cc2)S(=O)(=O)c2c(F)c(F)c(F)c(F)c2F)cc1O [Compound 2006, 4-(2-(N-(4-chlorobenzyl)-(2,3,4,5,6-pentafluorophenyl)sulfon-amido)-N-((2,3-dihydrobenzo[b][1,4]dioxin-6-yl)methyl)acetamido)-2-hydroxybenzoic acid]		3160 to 100000	
CC(C)COc1cc(CN(C(=O)CN(Cc2ccc(Cl)cc2)S(=O)(=O)c2c(F)c(F)c(F)c(F)c2F)c2ccc(C(=O)O)c(O)c2)cc(OCC(C)C)c1 [Compound 2007, 4-(2-(N-(4-chlorobenzyl)-(2,3,4,5,6-pentafluorophenyl)sulfon-amido)-N-(3,5-diisobutoxybenzyl)acetami-do)-2-hydroxybenzoic acid]		3160 to 100000	
CC(C)(C)c1cc(CN(C(=O)CN(C23CC(C2)C3)S(=O)(=O)c2c(F)c(F)c(F)c(F)c2F)c2ccc(C(=O)O)c(O)c2)cc(C2CC2)c1 [Compound 2008, 4-(2-(N-(bicyclo[1.1.1]pentan-1-yl)-(2,3,4,5,6-pentafluorophenyl)sulfon-amido)-N-(3-(tert-butyl)-5-cyclopropylbenzyl)acetami-do)-2-hydroxybenzoic acid]		3160 to 100000	
O=C(O)c1ccc(N(Cc2cc(OCC(F)(F)F)cc(OCC(F)(F)F)c2)C(=O)CN(Cc2ccc(Cl)cc2)S(=O)(=O)c2c(F)c(F)c(F)c(F)c2F)cc1O [Compound 2009, 4-(N-(3,5-bis(2,2,2-trifluoroethoxy)benzyl)-2-(N-(4-chlorobenzyl)-(2,3,4,5,6-pentafluorophenyl)sulfon-amido)acetamido)-2-hydroxybenzoic acid]		3160 to 100000	
